In US8933224B2, “Triazine derivatives” (Pfizer Inc., priority 2013, dated 2015):
pIC50: −log10 of the molar value.

Columns and labels:
[1] = target: rat PDE10 enzyme (Rattus norvegicus (Rat), UniProt Q9QYJ6); experiment: PDE10 scintillation proximity assay (SPA), inhibition of rat PDE10 enzyme activity; assay type: biochemical; conditions: geometric mean of 2-4 determinations unless otherwise indicated (b: ≧5 determinations; c: single determination)
In short: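 SPA with fixed recombinant PDE10 (Sf21-expressed, Ni-NTA and Mono Q purified) converting ~20% of 20 nM ³H-cAMP in 50 mM TRIS pH 7.5, 1.3 mM MgCl2, 0.01% Brij, across an inhibitor range.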

[2] = target: human recombinant PDE10 enzyme (PDE10A) (Homo sapiens, UniProt Q9Y233); experiment: PDE10 scintillation proximity assay (SPA), inhibition of human recombinant PDE10 enzyme activity; assay type: biochemical; conditions: geometric mean of 2-4 determinations unless otherwise indicated (b: ≧5 determinations; c: single determination)
Method: PDE10 activity was measured using a scintillation assay (SPA-based method) similar to that previously described by Seeger, T. F. et al., Brain Research 985 (2003) 113-126. The compounds' relative activity as PDE10 inhibitors was investigated by assaying a fixed amount of enzyme in the presence of the test compound and low substrate concentration (cAMP) such that an IC50 could be determined. […] The assay is performed in a 384-well format with 50 μL assay buffer (50 mM TRIS pH 7.5; 1.3 mM MgCl2; 0.01% Brij) containing enough PDE10 to convert ˜20% of 20 nM ^3H-cAMP, and a range of inhibitors. Reactions are incubated for 30 minutes at 25° C. The addition of 20 μL of 8 mg/ml yttrium silicate SPA beads (PerkinElmer) stops the reaction. The plates are sealed (TopSeal, PerkinElmer) and the beads are allowed to settle for 8 hrs, after which they are read on the Trilux Microbeta overnight. ^1Rat enzyme preparation:^2Human enzyme preparation:
Human PDE10A coding sequence (amino acids 21 to 797 from the sequence with accession number NP_001124162.1) was synthesized using codon optimization for insect expression and cloned into the baculovirus expression vector pFastBac (Invitrogen) engineered to include a N-terminal His6 affinity tag to aid in purification as described in Seeger, T. F. et al., Brain Research 985 (2003) 113-126. The recombinant Bacmid was isolated and used to transfect sf9 insect cells to generate a viral stock. To generate cell paste for purification, sf21 cells were infected with the virus stock and cells were harvested 72 hours after infection as described in Seeger, T. F. et al., Brain Research 985 (2003) 113-126. Insect cell paste was lysed and after centrifugation, the supernatant was chromatographed on Ni-NTA agarose (Qiagen) as described in Seeger, T. F. et al., Brain Research 985 (2003) 113-126. Ni-NTA agarose eluting fractions containing PDE10A were chromatographed on Superdex 200 (GE Healthcare Life Sciences) in 50 mM Tris HCl pH 7.5, 150 mM NaCl, 1 mM EDTA, 10% glycerol, 2 mM TCEP, 1.5 mM benzamidine, EDTA-free protease inhibitors (Roche), and 5 μM E-64.

Chain of rat PDE10 enzyme (Q9QYJ6 24-794): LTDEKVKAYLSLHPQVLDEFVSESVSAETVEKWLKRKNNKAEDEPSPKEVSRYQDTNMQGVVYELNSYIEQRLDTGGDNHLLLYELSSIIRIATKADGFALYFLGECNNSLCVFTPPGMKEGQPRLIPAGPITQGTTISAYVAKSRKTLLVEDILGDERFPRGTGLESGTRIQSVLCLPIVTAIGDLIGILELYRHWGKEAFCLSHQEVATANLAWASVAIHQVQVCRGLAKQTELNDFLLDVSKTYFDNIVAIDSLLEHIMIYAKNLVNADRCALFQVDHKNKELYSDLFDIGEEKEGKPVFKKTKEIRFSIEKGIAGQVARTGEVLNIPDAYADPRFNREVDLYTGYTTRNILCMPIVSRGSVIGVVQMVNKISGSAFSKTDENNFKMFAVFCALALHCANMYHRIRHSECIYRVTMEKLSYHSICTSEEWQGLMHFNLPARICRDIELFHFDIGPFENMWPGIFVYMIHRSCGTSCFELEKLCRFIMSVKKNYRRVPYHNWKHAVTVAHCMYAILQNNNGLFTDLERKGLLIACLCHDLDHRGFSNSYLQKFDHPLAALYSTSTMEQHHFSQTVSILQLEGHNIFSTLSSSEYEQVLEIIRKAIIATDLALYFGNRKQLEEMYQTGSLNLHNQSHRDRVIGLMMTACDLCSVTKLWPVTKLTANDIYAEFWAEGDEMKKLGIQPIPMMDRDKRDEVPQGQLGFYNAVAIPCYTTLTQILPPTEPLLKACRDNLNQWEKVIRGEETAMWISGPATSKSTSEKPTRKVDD

Row | pIC50 [1] | pIC50 [2] | SMILES
1 | 8.65 | 8.49 | Cc1nc([C@H]2CCOC2)c2c(N3CCn4ncc(C(F)(F)F)c4C3)ncnn12 [Example 50, 7-methyl-5-[(3R)-tetrahydrofuran-3-yl]-4-[3-(trifluoromethyl)-6,7-dihydropyrazolo[1,5-a]pyrazin-5(4H)-yl]imidazo[5,1-f][1,2,4]triazine]
2 | 9.44 | 7.86 | CCc1c2c(nn1C)CCN(c1ncnn3c(C)nc([C@@H]4CCOC4)c13)C2 [Example 57, 4-(3-ethyl-2-methyl-2,4,6,7-tetrahydro-5H-pyrazolo[4,3-c]pyridin-5-yl)-7-methyl-5-[(3S)-tetrahydrofuran-3-yl]imidazo[5,1-f][1,2,4]triazine]
3 | > 8.94 | 8.95 | COc1ccc2c(c1)CCN(c1ncnn3c(C)nc([C@@H]4CCOC4)c13)C2 [Example 58, 6-methoxy-2-{7-methyl-5-[(3S)-tetrahydrofuran-3-yl]imidazo[5,1-f][1,2,4]triazin-4-yl}-1,2,3,4-tetrahydroisoquinoline]
4 | 8.82 | 8.71 | COc1cc2c(cn1)CN(c1ncnn3c(C)nc([C@@H]4CCOC4)c13)CC2 [Example 70, 6-methoxy-2-{7-methyl-5-[(3S)-tetrahydrofuran-3-yl]imidazo[5,1-f][1,2,4]triazin-4-yl}-1,2,3,4-tetrahydro-2,7-naphthyridine]
5 | 8.47 | 8.24 | COc1cc2c(cn1)CN(c1ncnn3c(C)nc(-c4ccccc4F)c13)CC2 [Example 71, 2-[5-(2-fluorophenyl)-7-methylimidazo[5,1-f][1,2,4]triazin-4-yl]-6-methoxy-1,2,3,4-tetrahydro-2,7-naphthyridine]
6 | 9.59 | 9.27 | Cc1ccc2c(n1)CN(c1ncnn3c(C)nc([C@@H]4CCOC4)c13)CC2 [Example 72, 2-methyl-7-{7-methyl-5-[(3S)-tetrahydrofuran-3-yl]imidazo[5,1-f][1,2,4]triazin-4-yl}-5,6,7,8-tetrahydro-1,7-naphthyridine]
7 | 10.05 | 9.68 | Cc1nc([C@@H]2CCOC2)c2c(N3CCc4ccc(C5CC5)nc4C3)ncnn12 [Example 74, 2-cyclopropyl-7-{7-methyl-5-[(3S)-tetrahydrofuran-3-yl]imidazo[5,1-f][1,2,4]triazin-4-yl}-5,6,7,8-tetrahydro-1,7-naphthyridine]
8 | 8.45 | 8.22 | Cc1nc(-c2ccccc2F)c2c(N3CCc4ccc(C5CC5)nc4C3)ncnn12 [Example 75, 2-cyclopropyl-7-[5-(2-fluorophenyl)-7-methylimidazo[5,1-f][1,2,4]triazin-4-yl]-5,6,7,8-tetrahydro-1,7-naphthyridine]
9 | 9.25 | 9.74 | Cc1nc([C@H]2CCOC2)c2c(N3CCc4c(c(C(C)C)nn4C)C3)ncnn12 [Example 85, 7-methyl-4-{1-methyl-3-(propan-2-yl)-1,4,6,7-tetrahydro-5H-pyrazolo[4,3-c]pyridin-5-yl]-5-[(3R)-tetrahydrofuran-3-yl]imidazo[5,1-f][1,2,4]triazine]
10 | 9.88 | 10.35 | Cc1nc([C@@H]2CCOC2)c2c(N3CCc4c(c(C(C)C)nn4C)C3)ncnn12 [Example 86, 7-methyl-4-[1-methyl-3-(propan-2-yl)-1,4,6,7-tetrahydro-5H-pyrazolo[4,3-c]pyridin-5-yl]-5-[(3S)-tetrahydrofuran-3-yl]imidazo[5,1-f][1,2,4]triazine]
11 | 8.81 | 8.44 | Cc1nc2c(c(C(F)(F)F)n1)CN(c1ncnn3c(C)nc([C@@H]4CCOC4)c13)CC2 [Example 88, 2-methyl-6-{7-methyl-5-[(3S)-tetrahydrofuran-3-yl]imidazo[5,1-f][1,2,4]triazin-4-yl}-4-(trifluoromethyl)-5,6,7,8-tetrahydropyrido[4,3-d]pyrimidine]
